According to US9394289B2, “Inhibitors of c-fms kinase” (Janssen Pharmaceutica NV, priority 2006, dated 2016):
Where a name gives a salt, the structure may show the parent alone.

Legend:
[1] = tested on: mouse bone-marrow derived macrophages (BMDM); experiment: CSF-1-driven mouse bone-marrow derived macrophages proliferation assay (BrDU incorporation); type: cell-based; conditions: Mus musculus, BMDM, 30 hrs culture, read-out: mCSF driven proliferation BMDM (Mouse) IC-50
Procedure: CSF-1-Driven Mouse Bone-Marrow Derived Macrophages Assay
Macrophages are derived by culturing mouse bone marrow in alpha-MEM supplemented with 10% FCS and 50 ng/ml recombinant mouse CSF-1 in bacteriologic dishes. On the sixth day, macrophages are detached from dishes, washed, and resuspended to 0.05 million cells/ml in alpha-MEM containing 10% FCS. One hundred ul of cell suspension are distributed per well into 96 well culture plates. Wells are further supplemented with the addition of 50 ul media containing 15 ng/ml CSF-1, 3 uM Indomethacin, and 3× of a dilution series of test compounds. The cells are cultured for 30 hrs at 37 degrees and 5% CO2. During the final six hours, cultures are supplemented with an additional 30 ul of media containing a 1:500 dilution of bromodeoxyuridine (BrDU). At the end of the culture period, the plates are spun at 1000 RPM for 1 minute and 130 ul of media is removed with a pipet and replaced with 150 ul of fixative solution for 1 hour @ room temperature. The fixative is then dispelled from the plates and the plates allowed to air dry. Incorporation of BrDU into the fixed, dried cells is quantified using a specific ELISA.

c-fms = c-fms (Homo sapiens (Human), UniProt P07333); experiment: Autophosphorylation fluorescence polarization competition immunoassay for c-fms inhibition; type: biochemical; conditions: averages of three independent measurements; table head says 1 nM c-fms, method says 10 nM c-fms, 1 mM ATP; read-out: 1 nM c-fms; peptide Pi assay IC-50
Sequence of c-fms (P07333 20-972): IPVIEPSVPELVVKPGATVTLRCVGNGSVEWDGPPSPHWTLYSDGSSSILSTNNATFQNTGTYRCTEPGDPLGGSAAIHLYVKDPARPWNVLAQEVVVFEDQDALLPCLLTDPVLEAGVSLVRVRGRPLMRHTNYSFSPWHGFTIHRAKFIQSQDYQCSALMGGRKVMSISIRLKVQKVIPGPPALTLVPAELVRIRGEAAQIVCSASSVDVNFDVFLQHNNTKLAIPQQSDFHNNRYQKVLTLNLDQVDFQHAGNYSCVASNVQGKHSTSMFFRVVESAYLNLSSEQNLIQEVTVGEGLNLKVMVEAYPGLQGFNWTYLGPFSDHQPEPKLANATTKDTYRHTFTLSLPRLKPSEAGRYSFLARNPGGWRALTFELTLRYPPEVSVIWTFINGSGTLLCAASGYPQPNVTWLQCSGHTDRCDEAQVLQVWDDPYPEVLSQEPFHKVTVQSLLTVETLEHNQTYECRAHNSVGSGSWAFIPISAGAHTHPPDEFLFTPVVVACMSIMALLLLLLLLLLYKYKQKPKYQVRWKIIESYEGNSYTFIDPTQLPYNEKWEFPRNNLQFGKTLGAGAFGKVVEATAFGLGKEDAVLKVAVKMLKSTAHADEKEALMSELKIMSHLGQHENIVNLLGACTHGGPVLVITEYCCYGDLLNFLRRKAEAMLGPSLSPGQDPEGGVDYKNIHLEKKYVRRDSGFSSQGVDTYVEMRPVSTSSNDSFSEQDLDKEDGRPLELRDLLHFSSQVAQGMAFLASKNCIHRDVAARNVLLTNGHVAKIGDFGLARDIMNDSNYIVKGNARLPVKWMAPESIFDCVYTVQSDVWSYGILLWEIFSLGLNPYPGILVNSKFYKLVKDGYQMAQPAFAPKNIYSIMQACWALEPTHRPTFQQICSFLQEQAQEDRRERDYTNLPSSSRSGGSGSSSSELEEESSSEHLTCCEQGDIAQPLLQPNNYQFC
Procedure: Fluorescence Polarization Competition Immunoassay
The assay buffer used was 100 mM 4-(2-hydroxyethyl)piperazine 1-ethanesulfonic acid (HEPES), pH 7.5, 1 mM 1,4-dithio-DL-threitol (DTT), 0.01% (v/v) Tween-20. Compounds were diluted in assay buffer containing 4% dimethylsulfoxide (DMSO) just prior to the assay. To each well, 5 μL of compound were added followed by the addition of 3 μL of a mix containing 33 nM c-fms (Johnson & Johnson PRD) and 16.7 mM MgCl2 (Sigma) in assay buffer. The kinase reaction was initiated by adding 2 μL of 5 mM ATP (Sigma) in assay buffer. […] Control reactions were ran in each plate: in positive and negative control wells, assay buffer (made 4% in DMSO) was substituted for the compound; in addition, positive control wells received 1.2 μL of 50 mM ethylenediaminetetraaceticacid (EDTA).
The plates were incubated at room temperature for 45 min. At the end of the incubation, the reaction was quenched with 1.2 μL of 50 mM EDTA (EDTA was not added to the positive control wells at this point; see above). Following a 5-min incubation, each well received 10 μL of a 1:1:3 mixture of anti-phosphotyrosine antibody, 10×, PTK green tracer, 10× (vortexed), FP dilution buffer, respectively (all from PanVera, cat. #P2837). The plate was covered, incubated for 30 min at room temperature and the fluorescence polarization was read on the Analyst. The instrument settings were: 485 nm excitation filter; 530 nm emission filter; Z height: middle of well; G factor: 0.93. […] The reported IC50 values are averages of three independent measurements.

| IC50 (c-fms) | SMILES | IC50 [1] |
| --- | --- | --- |
| 3.9 nM | N#Cc1c[nH]c(C(=O)Nc2ccc(C3(O)CCSCC3)cc2C2=CCCCC2)n1 [Example 14, 4-Cyano-1H-imidazole-2-carboxylic acid [2-cyclohex-1-enyl-4-(4-hydroxy-tetrahydro-thiopyran-4-yl)-phenyl]-amide] | 9.5 nM |
| 0.67 nM | COC(=O)C1(c2ccc(NC(=O)c3nc(C#N)c[nH]3)c(C3=CCC(C)(C)CC3)c2)CCOCC1 [Example 16, 4-[4-[(4-Cyano-1H-imidazole-2-carbonyl)-amino]-3-(4,4-dimethyl-cyclohex-1-enyl)-phenyl]-tetrahydro-pyran-4-carboxylic acid methyl ester] | 46 nM |
| 0.56 nM | CC1(C)CC=C(c2cc(C3(C(=O)O)CCOCC3)ccc2NC(=O)c2nc(C#N)c[nH]2)CC1 [Example 17, 4-[4-[(4-Cyano-1H-imidazole-2-carbonyl)-amino]-3-(4,4-dimethyl-cyclohex-1-enyl)-phenyl]-tetrahydro-pyran-4-carboxylic acid] | > 300 nM |
| 3.6 nM | N#Cc1c[nH]c(C(=O)Nc2ccc(C3(C(=O)O)CCOCC3)cc2C2=CCCCC2)n1 [Example 18, 4-{4-[(4-Cyano-1H-imidazole-2-carbonyl)-amino]-3-cyclohex-1-enyl-phenyl}-tetrahydro-pyran-4-carboxylic acid] | 300 nM |
| 1.8 nM | N#Cc1c[nH]c(C(=O)Nc2ccc(C3(C(N)=O)CCOCC3)cc2C2=CCCCC2)n1 [Example 19, 4-Cyano-1H-imidazole-2-carboxylic acid [4-(4-carbamoyl-tetrahydro-pyran-4-yl)-2-cyclohex-1-enyl-phenyl]-amide] | 19 nM |
| 1.8 nM | N#Cc1c[nH]c(C(=O)Nc2ccc(C3(CO)CCOCC3)cc2C2=CCCCC2)n1 [Example 20, 4-Cyano-1H-imidazole-2-carboxylic acid [2-cyclohex-1-enyl-4-(4-hydroxymethyl-tetrahydro-pyran-4-yl)-phenyl]-amide] | 20 nM |

The remaining lines, values behind:

| SMILES | IC50 (c-fms) | IC50 [1] |
| --- | --- | --- |
| CC1(C)CC=C(c2cc(C3(O)CCOCC3)ccc2NC(=O)c2ncc(C#N)[nH]2)CC1 [Example 1, 5-Cyano-1H-imidazole-2-carboxylic acid [2-(4,4-dimethyl-cyclohex-1-enyl)-4-(4-hydroxy-tetrahydro-pyran-4-yl)-phenyl]-amide] | 0.7 nM | 4 nM |
| CN(C)CCOC1(c2ccc(NC(=O)c3ncc(C#N)[nH]3)c(C3=CCC(C)(C)CC3)c2)CCOCC1 [Example 2, 5-Cyano-1H-imidazole-2-carboxylic acid [4-[4-(2-dimethylamino-ethoxy)-tetrahydro-pyran-4-yl]-2-(4,4-dimethyl-cyclohex-1-enyl)-phenyl]-amide trifluoroacetic acid salt] | 0.42 nM | 2.2 nM |
| CC1(C)CC=C(c2cc(C3(OCC(=O)O)CCOCC3)ccc2NC(=O)c2ncc(C#N)[nH]2)CC1 [Example 3, {4-[4-[(5-Cyano-1H-imidazole-2-carbonyl)-amino]-3-(4,4-dimethyl-cyclohex-1-enyl)-phenyl]-tetrahydro-pyran-4-yloxy}-acetic acid] | 1.7 nM | – |
| COCCNC1(c2ccc(NC(=O)c3nc(C#N)c[nH]3)c(C3=CCC(C)(C)CC3)c2)CCOCC1 [Example 4, 4-Cyano-1H-imidazole-2-carboxylic acid {2-(4,4-dimethyl-cyclohex-1-enyl)-4-[4-(2-methoxy-ethylamino)-tetrahydro-pyran-4-yl]-phenyl}-amide] | 1.8 nM | 14 nM |
| CC1(C)CC=C(c2cc(C3(N)CCOCC3)ccc2NC(=O)c2ncc(C#N)[nH]2)CC1 [Example 5, 5-Cyano-1H-imidazole-2-carboxylic acid [4-(4-amino-tetrahydro-pyran-4-yl)-2-(4,4-dimethyl-cyclohex-1-enyl)-phenyl]-amide] | 0.5 nM | 2.4 nM |
| CC1(C)CC=C(c2cc(C3(N4CCOCC4)CCOCC3)ccc2NC(=O)c2ncc(C#N)[nH]2)CC1 [Example 6, 5-Cyano-1H-imidazole-2-carboxylic acid [2-(4,4-dimethyl-cyclohex-1-enyl)-4-(4-morpholin-4-yl-tetrahydro-pyran-4-yl)-phenyl]-amide] | 1.6 nM | 15 nM |
| CN(C)C1(c2ccc(NC(=O)c3ncc(C#N)[nH]3)c(C3=CCC(C)(C)CC3)c2)CCOCC1 [Example 7, 5-Cyano-1H-imidazole-2-carboxylic acid [4-(4-dimethylamino-tetrahydro-pyran-4-yl)-2-(4,4-dimethyl-cyclohex-1-enyl)-phenyl]-amide] | 0.67 nM | 11 nM |
| CN1CCN(C2(c3ccc(NC(=O)c4ncc(C#N)[nH]4)c(C4=CCC(C)(C)CC4)c3)CCOCC2)CC1 [Example 8, 5-Cyano-1H-imidazole-2-carboxylic acid {2-(4,4-dimethyl-cyclohex-1-enyl)-4-[4-(4-methyl-piperazin-1-yl)-tetrahydro-pyran-4-yl]-phenyl}-amide] | 4 nM | 15 nM |
| CC1(C)CC=C(c2cc(C3(N4CCNCC4)CCOCC3)ccc2NC(=O)c2ncc(C#N)[nH]2)CC1 [Example 9, 5-Cyano-1H-imidazole-2-carboxylic acid [2-(4,4-dimethyl-cyclohex-1-enyl)-4-(4-piperazin-1-yl-tetrahydro-pyran-4-yl)-phenyl]-amide] | 1.9 nM | 100 nM |
| CC1(C)CC=C(c2cc(C3(N4CCN(CC(=O)O)CC4)CCOCC3)ccc2NC(=O)c2ncc(C#N)[nH]2)CC1 [Example 10, (4-{4-[4-[(5-Cyano-1H-imidazole-2-carbonyl)-amino]-3-(4,4-dimethyl-cyclohex-1-enyl)-phenyl]-tetrahydro-pyran-4-yl}-piperazin-1-yl)-acetic acid trifluoroacetic acid salt] | 7.9 nM | > 300 nM |
| CC1(C)CC=C(c2cc(C3(O)CCSCC3)ccc2NC(=O)c2nc(C#N)c[nH]2)CC1 [Example 11, 4-Cyano-1H-imidazole-2-carboxylic acid [2-(4,4-dimethyl-cyclohex-1-enyl)-4-(4-hydroxy-tetrahydro-thiopyran-4-yl)-phenyl]-amide] | 2.9 nM | 35 nM |
| CC1(C)CC=C(c2cc(C3(O)CCS(=O)(=O)CC3)ccc2NC(=O)c2nc(C#N)c[nH]2)CC1 [Example 12, 4-Cyano-1H-imidazole-2-carboxylic acid [2-(4,4-dimethyl-cyclohex-1-enyl)-4-(4-hydroxy-1,1-dioxo-hexahydro-1λ^6-thiopyran-4-yl)-phenyl]-amide] | 1.1 nM | 31 nM |
| CC(=O)N1CCC(N)(c2ccc(NC(=O)c3nc(C#N)c[nH]3)c(C3=CCC(C)(C)CC3)c2)CC1 [Example 13, 4-Cyano-1H-imidazole-2-carboxylic acid [4-(1-acetyl-4-amino-piperidin-4-yl)-2-(4,4-dimethyl-cyclohex-1-enyl)-phenyl]-amide acetic acid salt] | 0.8 nM | 8.1 nM |
| N#Cc1c[nH]c(C(=O)Nc2ccc(C3(O)CCS(=O)(=O)CC3)cc2C2=CCCCC2)n1 [Example 15, 4-Cyano-1H-imidazole-2-carboxylic acid [2-cyclohex-1-enyl-4-(4-hydroxy-1,1-dioxo-hexahydro-1λ^6-thiopyran-4-yl)-phenyl]-amide] | – | 14 nM |
